Test results published in patent publication US20050096370A1, “Method for inhibiting tumor angiogenesis and tumor growth” (Bizbiotech Co., Ltd., priority 2003, published 2005).

Assays:
Hep3B hepatoma = Hep3B hepatoma xenograft tumor growth in nude mice; type: in vivo; settings: P<0.001 versus vehicle
Experimental: (§1) Male nude mice were injected subcutaneously in the flank with 5×10^6 viable Hep3B hepatoma (A), NCI-H87 gastric carcinoma (B), SiHa cervical carcinoma (C), SK-N-MC neuroblastoma (E), or Caki-I renal carcinoma (F) cells. […] Tumor size was measured over time. […] Differences between tumor sizes in the vehicle- and YC-1-treated groups for mice with Hep3B tumors were compared using ANOVA and Duncan's multiple range tests. * denotes P<0.001 relative to the control. Differences between tumor sizes in the vehicle and YC-1-treated groups for mice with other tumors (B-E) were compared using a Mann-Whitney U test. Each number beneath the error bar represents the P value of the difference relative to the control.
(§2) Male nude (BALB/cAnNC˜-nu/nu) mice were purchased from Charles River Japan Inc. (Shin-Yokohama, JAPAN). The animals were housed in a specific pathogen-free room under controlled temperature and humidity. All animal procedures were performed according to the established procedures of the Seoul National University Laboratory Animal Maintenance Manual. Eighty mice aged 7-8 weeks were injected with tumor cells for the xenograft experiments. […]
(§3) Tumors were measured every 2 or 3 days with calipers in two dimensions and the tumor volumes were calculated using the formula: Volume=axb2/2, where a is the width at the widest point of the tumor and h is the width perpendicular to a. […]

[1] = test system: NCI-H87 gastric carcinoma; experiment: NCI-H87 gastric carcinoma xenograft tumor growth in nude mice; type: in vivo; settings: YC-1 30 μg/g daily i.p. 2 weeks, P<0.01
Experimental: as §1, §2, §3

Caki-1 renal carcinoma = Caki-1 renal carcinoma xenograft tumor growth in nude mice; type: in vivo; settings: YC-1 30 μg/g daily i.p. 2 weeks, P<0.01
Experimental: as §1, §2, §3

HIF-1α and VEGF = HIF-1α and VEGF protein immunoblot of Hep3B xenograft tumor lysates; type: in vivo, nude mice; settings: Hep3B xenografts, 30 μg/g daily i.p. 2 weeks
Experimental: Male nude mice were injected subcutaneously in the flank with 5×10^6 viable Hep3B cells. […] After the last treatment, the mice were euthanized, the tumors removed and lysates prepared for immunoblotting.
Male nude mice were injected subcutaneously in the flank with 5×10^6 viable Hep3B cells. […] After the last treatment, the mice were euthanized, the tumors removed and lysates prepared for immunoblotting. Tumor lysates from vehicle-treated mice (C) and from. […] The antigen-antibody-protein A complexes were washed extensively with the lysis buffer, the immunocomplexes were eluted by boiling for 3 minutes in a sample buffer containing 2% SDS and 10 mM dithiothreitol and subjected to SDS-PAGE, and then immunoblotted using a rat anti HIF-1α antibody developed previously (Chun et al., Biochem J 2002 362:71-79). β-actin protein was measured as an internal standard. VEGF in tumor tissue was detected using a mouse monoclonal anti-VEGF (SantaCruz Biotechnology Inc., Santa Cruz, Calif.) at a dilution of 1:1000, followed by incubation with a horseradish peroxidase-conjugated anti-mouse antiseruni (Zymed Laboratories Inc.).

[2] = test system: HIF-1-regulated genes (VEGF, aldolase A, enolase 1); experiment: RT-PCR of HIF-1-regulated gene mRNA in Hep3B xenografts; type: in vivo, nude mice; settings: 30 μg/g daily i.p. 2 weeks
Experimental: Male nude mice were injected subcutaneously in the flank with 5×10^6 viable Hep3B cells. […] After the last treatment, the mice were euthanized, the tumors removed and lysates prepared for mRNA analysis. The mRNA levels of VEGF, aldolase A, enolase 1, and β-actin were measured by semi-quantitative RT-PCR. The quality of the extracted RNAs was verified by identifying the 18S ribosomal RNA (rRNA) on a 1% denaturing agarose gel.
The quality of the extracted RNAs was verified by identifying the 18S ribosomal RNA (rRNA) on a 1% denaturing agarose gel. VEGF, aldolase A and enolase 1 mRNA levels were also lower in YC-1-treated tumors than in vehicle-treated tumors one experiment. Results are expressed as the mean and 95% confidence intervals of 4 separate experiments.

[3] = test system: natural killer (NK) cell activity; experiment: NK cell activity of splenic lymphocytes from treated mice (51Cr release from YAC-1 cells); type: in vivo, nude mice; settings: 30 μg/g daily i.p. for 2 weeks
Experimental: The lymphocytes were then incubated at the indicated effectontarget cell (E:T) ratios with ^51Cr-labeled YAC-1 cells (1×10^4). After 4 hours, the amount of radioactivity in the culture supernatants was measured with a gamma counter. […] Splenic lymphocytes were then isolated and tested for NK cell activity. The result is expressed as the mean of four separate experiments with 95% confidence intervals.
Splenic lymphocytes were isolated from each mouse and tested immediately for NK cell activity. The spontaneous release of ^51Cr from YAC-1 cells was usually lower than 10% of the total ^51Cr loaded. NK cell activity was calculated as follows: {(experimental release−spontaneous release)/(total release−spontaneous release)}×100. Each assay was repeated three times and the average value is the result from one experiment. Results are expressed as the mean and 95% confidence intervals of 4 separate experiments.

With `OCc1ccc(-c2nn(Cc3ccccc3)c3ccccc23)o1` [YC-1, 3-(5′-hydroxymethyl-2′-furyl)-1-benzylindazole] the “tumor volume, mean, last day of experiment” value (Hep3B hepatoma; YC-1 30 μg/g daily i.p. for 2 weeks after tumors established (100-150 mm^3)) was 126 mm^3, the tumor volume, mean, last day of experiment (Hep3B hepatoma; YC-1 daily i.p. for 2 weeks, started the day after tumor cell injection) was 422 mm³ and the “tumor size versus vehicle” value [1] was “statistically significantly smaller”. For the same compound, the “tumor size versus vehicle” value (Caki-1 renal carcinoma) was “statistically significantly smaller”, the “level of HIF-1α protein expression in tumors versus vehicle” value (HIF-1α and VEGF) was “markedly lower” and the “level of VEGF protein expression in tumors versus vehicle” value (HIF-1α and VEGF) was “markedly lower”. The “VEGF, aldolase A and enolase 1 mRNA levels in tumors versus vehicle” value [2] was “lower” and the “cytolytic activity versus vehicle-treated mice” value [3] was “comparable”.
